Among the data in ChEMBL document CHEMBL5523724, “Rational Molecular Editing: A New Paradigm in Drug Discovery” (J Med Chem, 2024) are IC50 values, retold here.

As a reminder, the IC50 is the midpoint of a concentration-inhibition curve. A high value points to weaker potency in that assay.

Assay [1] concerns the target T1, 3-hydroxy-3-methylglutaryl-coenzyme A reductase (Homo sapiens, UniProt P04035).
T1 sequence (P04035 whole entry): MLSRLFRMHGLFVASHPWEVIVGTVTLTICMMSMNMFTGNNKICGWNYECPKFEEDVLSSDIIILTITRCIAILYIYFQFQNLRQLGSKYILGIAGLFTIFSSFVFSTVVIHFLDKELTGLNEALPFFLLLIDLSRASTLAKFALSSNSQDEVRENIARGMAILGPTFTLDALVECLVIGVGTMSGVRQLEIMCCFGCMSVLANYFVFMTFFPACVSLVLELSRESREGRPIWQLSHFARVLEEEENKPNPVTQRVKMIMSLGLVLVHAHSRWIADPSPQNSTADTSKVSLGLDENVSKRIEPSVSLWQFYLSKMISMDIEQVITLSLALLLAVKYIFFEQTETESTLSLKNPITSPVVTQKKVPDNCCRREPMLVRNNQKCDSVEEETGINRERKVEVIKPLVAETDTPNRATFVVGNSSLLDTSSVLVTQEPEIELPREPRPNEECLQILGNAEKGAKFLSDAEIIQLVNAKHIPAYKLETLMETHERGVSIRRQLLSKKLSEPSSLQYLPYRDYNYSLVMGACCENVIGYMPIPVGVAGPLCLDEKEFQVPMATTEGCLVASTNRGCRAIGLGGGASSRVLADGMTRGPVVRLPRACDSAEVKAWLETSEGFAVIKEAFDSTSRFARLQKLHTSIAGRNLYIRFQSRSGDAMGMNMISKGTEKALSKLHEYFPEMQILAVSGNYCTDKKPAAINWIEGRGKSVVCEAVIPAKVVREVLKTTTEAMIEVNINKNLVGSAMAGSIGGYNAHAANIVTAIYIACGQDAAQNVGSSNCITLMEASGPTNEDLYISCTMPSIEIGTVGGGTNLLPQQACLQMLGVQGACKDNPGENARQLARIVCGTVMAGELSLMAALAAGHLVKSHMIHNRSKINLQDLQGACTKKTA
Kind of assay: Inhibition of HMG-CoA Reductase (unknown origin).

Another assay concerns Ramos. The assay can be described thus: Antitumor activity against human Ramos cells. Type of assay: functional, cell-based.

As for `CC(C)c1c(C(=O)Nc2ccccc2)c(-c2ccccc2)c(-c2ccc(F)cc2)n1CC[C@@H]1C[C@@H](O)CC(=O)O1` [ATORVASTATIN LACTONE], the midpoint of inhibition in assay [1], the IC50, lay at 7 nM. This lies in the single-digit nanomolar range.
In the case of `Cc1cccc(P(=O)(CNCc2ccccc2)c2cccc(C)c2)c1`, in the assay with Ramos, the IC50 turned out to be 38 µM. In other words, the double-digit micromolar range.
With `CC(C)c1ccc(-c2ccc(F)cc2)n1CC[C@@H]1C[C@@H](O)CC(=O)O1`, the half-maximal inhibitory concentration (IC50) in assay [1] worked out at 230 nM.
The compound `[2H]C([2H])(NCc1ccccc1)P(=O)(c1cccc(C)c1)c1cccc(C)c1` registered an IC50 in the assay with Ramos of 4.2 µM. This lies in the single-digit micromolar range.
